{"source": "patent US20090130070A1", "about": "“METHOD OF TREATMENT” (The University of Queensland, priority 2004, published 2009)", "key": {"[1]": {"tested_on": "Human epidermal keratinocytes (HaCaT cells)", "assay": "\"scrape\" in vitro wound healing model (wound closure of a scraped confluent monolayer)", "assay_type": "cell-based", "details": "for wound width, day 1: day 1 (24 hours); for wound width, day 2: day 2 (48 hours); for ability to enhance keratinocyte wound closure compared with thyroglobulin and TGF-β1 inhibitor: at all concentrations of agents", "description": "The “scrape” in vitro wound healing model has been previously presented in the literature (Li, F. et al., 2000, Exp Cell Res., 258(2): 245-253; Firth J. D. et al., 2004, J. Invest. Dermatol., 122(1): 222-231). In this model a scrape across a confluent monolayer of cells is used to simulate a wound and the effect of agents added to serum free media is tested on the rate of closure of the gap.\nHuman epidermal keratinocytes (HaCaT cells) were plated at a density of 1×10^5 cells/well into Nunc 6 well plates in Dulbecco's Modified Eagle Medium (DMEM) containing 10% fetal bovine serum (FBS) benzyl penicillin (100 IU/ml), streptomycin […] confluence (2 days) monolayers were “wounded” with a 1 ml pipette tip (0.5 mm width) by scraping the tip across the centre of the well. The wells were then washed 5 times with DMEM. One ml of either DMEM with 10% FBS, DMEM or DMEM with: 3, 6, 12 or 24 mgs/ml bovine fetuin A (Sigma), 6.25, 12.5, 25 or 50 μg/ml peptide TGF peptide antagonist (Corresponding to residues 41-65 of TGFβ-1-3:—Huang S. S. et al., 1997, Journal of Biological Chemistry, 272(43):27155-27159) and 2.1, 4.2, 8.4 and 16.8 mg/ml bovine thyroglobulin was added to each well (2 replicates per plate, 4 plates). These concentrations were calculated to have equivalent antagonistic effect on the binding of TGFβ-1 to its receptor for each of the compounds. All DMEM solutions used contained benzyl penicillin (100 IU/ml), streptomycin ([…]) and fungizone (250 mg/ml). A mark was placed on the base of each well at right angles to the “wound” and the wound was photographed at the intersection of the mark and wound with a Nikon EOS 300 digital camera fitted to a JenaMed (Ziess Jena) inverted microscope (50×). Images were taken at the same positions 24 and 48 hours after addition of the treatment media. Digital images were analysed with Image Pro (Media Cybernetics) image analysis software and an image of a Nikon stage micrometer was used for calibration of length measurements. Results were summarized as the wound width after 24 and 48 hours."}, "TGF-β1": {"biological_target": "TGF-β1 (Homo sapiens, UniProt P01137)", "sequence (P01137 279-390 limits assumed, species assumed)": "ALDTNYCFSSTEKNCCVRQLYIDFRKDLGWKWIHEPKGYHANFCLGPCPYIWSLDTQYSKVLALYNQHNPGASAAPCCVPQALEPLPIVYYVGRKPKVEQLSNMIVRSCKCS", "details": "cited from earlier work"}, "TGF-β2": {"biological_target": "T1, TGF-β2 (Homo sapiens, UniProt P61812)", "T1 sequence (P61812 303-414 limits assumed)": "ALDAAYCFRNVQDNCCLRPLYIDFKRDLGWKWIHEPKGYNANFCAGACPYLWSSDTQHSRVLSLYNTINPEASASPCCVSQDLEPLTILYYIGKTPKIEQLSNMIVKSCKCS", "details": "cited from earlier work"}, "TGF-β3": {"biological_target": "T2, TGF-β3 (Homo sapiens, UniProt P10600)", "T2 sequence (P10600 301-412 limits assumed)": "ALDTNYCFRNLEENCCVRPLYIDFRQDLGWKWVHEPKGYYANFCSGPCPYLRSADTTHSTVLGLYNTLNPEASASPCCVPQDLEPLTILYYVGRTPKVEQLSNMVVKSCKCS", "details": "cited from earlier work"}, "BMP-2": {"biological_target": "T3, BMP-2 (Homo sapiens, UniProt P12643)", "T3 sequence (P12643 283-396)": "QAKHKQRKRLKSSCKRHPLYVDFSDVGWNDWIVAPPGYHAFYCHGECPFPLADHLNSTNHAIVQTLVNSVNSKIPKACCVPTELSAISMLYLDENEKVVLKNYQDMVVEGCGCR", "details": "cited from earlier work"}, "BMP-4": {"biological_target": "T4, BMP-4 (Homo sapiens, UniProt P12644)", "T4 sequence (P12644 293-408)": "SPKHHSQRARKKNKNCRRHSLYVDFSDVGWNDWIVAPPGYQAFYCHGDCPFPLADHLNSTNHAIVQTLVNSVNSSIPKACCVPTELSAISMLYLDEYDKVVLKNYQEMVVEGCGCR", "details": "cited from earlier work"}, "BMP-6": {"biological_target": "T5, BMP-6 (Homo sapiens, UniProt P22004)", "T5 sequence (P22004 375-513)": "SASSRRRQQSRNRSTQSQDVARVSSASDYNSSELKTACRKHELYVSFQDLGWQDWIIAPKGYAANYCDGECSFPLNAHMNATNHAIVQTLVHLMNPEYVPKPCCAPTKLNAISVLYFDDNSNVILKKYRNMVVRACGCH", "details": "cited from earlier work"}, "[2]": {"details": "3 mgs/ml bovine fetuin A in DMEM"}, "[3]": {"details": "6 mgs/ml bovine fetuin A in DMEM"}, "[4]": {"details": "12 mgs/ml bovine fetuin A in DMEM"}, "[5]": {"details": "24 mgs/ml bovine fetuin A in DMEM"}}, "data": [{"substance": "Fetuin: bovine fetuin A (Sigma); glycoprotein also called alpha2-Heremans-Schmid-glycoprotein (AHSG)", "values": [{"measurement": "wound width, day 0", "setting": "[1]; [2]", "value": 0.7602}, {"measurement": "wound width, day 1", "setting": "[1]; [2]", "value": 0.4265}, {"measurement": "wound width, day 2", "setting": "[1]; [2]", "value": 0.02947}, {"measurement": "wound width, day 0", "setting": "[1]; [3]", "value": 0.7332}, {"measurement": "wound width, day 1", "setting": "[1]; [3]", "value": 0.3938}, {"measurement": "wound width, day 2", "setting": "[1]; [3]", "value": 0.01441}, {"measurement": "wound width, day 0", "setting": "[1]; [4]", "value": 0.7231}, {"measurement": "wound width, day 1", "setting": "[1]; [4]", "value": 0.3699}, {"measurement": "wound width, day 2", "setting": "[1]; [4]", "value": 0.000259}, {"measurement": "wound width, day 0", "setting": "[1]; [5]", "value": 0.6724}, {"measurement": "wound width, day 1", "setting": "[1]; [5]", "value": 0.3806}, {"measurement": "wound width, day 2", "setting": "[1]; [5]", "value": 0.04348}, {"measurement": "ability to enhance keratinocyte wound closure compared with thyroglobulin and TGF-β1 inhibitor", "setting": "[1]; listed as fetuin", "value": "markedly more effective than either thyroglobulin or a TGF-β1 inhibitor"}, {"measurement": "ability to enhance keratinocyte wound closure compared with thyroglobulin and TGF-β1 inhibitor", "setting": "[1]; listed as fetuin A", "value": "significantly greater ability than thyroglobulin and TGFβ1 to enhance keratinocyte wound closure"}, {"measurement": "binding to TGF-β1", "setting": "TGF-β1", "value": "strongly"}, {"measurement": "binding to TGF-β2", "setting": "TGF-β2", "value": "strongly"}, {"measurement": "binding to TGF-β3", "setting": "TGF-β3", "value": "weakly"}, {"measurement": "binding to BMP-2", "setting": "BMP-2", "value": "strongly"}, {"measurement": "binding to BMP-4", "setting": "BMP-4", "value": "strongly"}, {"measurement": "binding to BMP-6", "setting": "BMP-6", "value": "strongly"}]}]}
